Experimental data taken from patent EP0017102A1, “Composition containing a phenyl benzoic acid compound and acetaminophen combination for the treatment of pain and inflammation and process for preparing the same” (Merck & Co., Inc., priority 1979, dated 1980).
“And” between values parts separate entries of the source, which are not always exact repeats. Equal values may be shown once.

Experiments:
[1] = system: adjuvant arthritis induced in rats; assay: adjuvant arthritis analgesic bioassay (tail pinch / foot bend squeak response); format: in vivo, Sprague-Dawley rats
Excerpt: Since analgesic tests using intact animals are not sensitive enough to detect the analgesic activity of nonsteroidal anti-inflammatory compounds, the analgesic bioassay employed utilized inflammatory sensitization procedures, specifically adjuvant arthritis. Adjuvant arthritis induced in rats, the animals used in the bioassay, resembles rheumatoid arthritis in man with respect to the manifestation of inflammation and hyperalgesia. When the affected joints of rats with adjuvant arthritis are subjected to a gentle manipulation, preferably by extending the joint, the rats respond by squeaking, which is a definite and reproducible sign of algesia. The ability of the tested compounds to suppress this squeaking response was an accurate measure of the analgesic activity of the tested compounds.
In accordance with the adjuvant arthritis bioassay used to evaluate the analgesic activity of the combinations of compounds of the present invention, young adult Sprague-Dawley rats of either sex are rendered hyperalgesic by injection of dessicated Mycobacterium- butyricum suspended in light mineral oil (Freund's adjuvant). The mycobacteria are ground in a mortar, suspended in the oil, and sterilized in an autoclave. Each animal receives 0.5 mg of the bacteria in 0.1 ml of oil, injected subcutaneously through a 21-gauge needle into the distal third of the tail.
The animals can subsequently be used in two ways for testing the analgesic action of drugs. The day after the injection of adjuvant, the tail is found to be sensitive to touch. Approximately 16 hours after the injection, the experimenter tests the animals for the presence of hyperalgesia. This is done by holding the animal in one hand. With the thumb and forefinger of the other hand, the observer applies gentle pressure to the tail about 2.5 cm proximal to the point where the needle has been inserted. This gentle pressure is repeated at 5-sec intervals. If the rat endures five such gentle presses without emitting more than one "squeak", analgesia is considered to be present and a score of + is assigned. Two or more squeaks earns a rating of 0, or no analgesia. Before being assigned to an experiment, animals are screened and only those with the 0 rating are used.
The hyperalgesic animals are assigned randomly to drug treatments and one of the treatments is always the vehicle without the drug (placebo group). […] […] This entire procedure may be referred to as "tail pinch" .technique. Alternatively, an apparatus for applying pressure to the tail may be employed and the "squeak threshold" determined before and after drug.
The adjuvant-injected animals, if left undisturbed, develop severe arthritis which becomes especially manifest in about two weeks. […] This "foot bend" technique yields drug responses essentially identical with those obtained by the "tail pinch" procedure.
For a further description of this bioassay and its significance, reference is made to Kuzuma and Kawai, "Evaluation of Analgesic Agents in Rats with Adjuvant Arthritis", Chem. Pharm. Bull., 23 (6) 1184-1191 (1975).

[2] = in vivo; format: in vivo, mice; settings: mouse, in vivo, po
Description: (§1) Measurements of the relative safety of the components and of the combination were carried out using acute oral toxicity studies in female mice. Randomly selected female albino mice (Carworth CF-1) weighing from 18 to 24 grams, and 6 to 7 weeks old, were used. The LD50 value for each drug was estimated from acute oral dose-response curves previously established. The following dose regimen was utilized:
(§2) The preparations were administered by gastric intubation using a metal catheter attached to a springe. The various doses were administered randomly with 20 mice per group. Food was withheld one to two hours before and three hours following drug treatment. Water was available at all times. […] Body weights were taken pretest and on days 7 and 14.

[3] = system: female albino mice (Carworth CF-1); assay: in vivo; format: in vivo; settings: Group V: Acetaminophen 1500 mg./kg. (100 %LD50) alone; oral; 20 tested; 14 days
Description: as §1, §2

[4] = system: adjuvant arthritis induced in rats; settings: compounds known to be clinically active; cited from earlier work

## CC(=O)Nc1ccc(O)cc1 [APAP, acetaminophen]
[1]; 1/2 h after administration, dose 200 mg./kg., 8 rats per dose
  Number of Rats with Analgesia: 2
[1]; 1 Hrs. after drug, APAP 25 mg./kg., 10 rats per dose
  Percent of Rats with Analgesia APAP Alone: 10%
[1]; 1 Hrs. after drug, APAP 200 mg./kg., 8 rats per dose
  Percent of Rats with Analgesia APAP Alone: 25% and 37.5%
[1]; 2 Hrs. after drug, APAP 50 mg./kg., 10 rats per dose
  Percent of Rats with Analgesia APAP Alone: 0%
[1]; 3 Hrs. after drug, APAP 100 mg./kg., 8 rats per dose
  Percent of Rats with Analgesia APAP Alone: 0%
[1]; 3 Hrs. after drug, APAP 100 mg./kg., 10 rats per dose
  Percent of Rats with Analgesia APAP Alone: 0%
[1]; 4 Hrs. after drug, APAP 25 mg./kg., 10 rats per dose
  Percent of Rats with Analgesia APAP Alone: 0%
[1]; 4 Hrs. after drug, APAP 50 mg./kg., 10 rats per dose
  Percent of Rats with Analgesia APAP Alone: 0%
[1]; 4 Hrs. after drug, APAP 100 mg./kg., 8 rats per dose
  Percent of Rats with Analgesia APAP Alone: 0%
[1]; 4 Hrs. after drug, APAP 100 mg./kg., 10 rats per dose
  Percent of Rats with Analgesia APAP Alone: 0%
[1]; 5 Hrs. after drug, APAP 100 mg./kg., 8 rats per dose
  Percent of Rats with Analgesia APAP Alone: 0%
[1]; 5 Hrs. after drug, APAP 200 mg./kg., 8 rats per dose
  Percent of Rats with Analgesia APAP Alone: 25%
[1]; 1 h after administration, dose 25 mg./kg., 10 rats per dose
  Number of Rats with Analgesia: 1
[1]; 1 h after administration, dose 50 mg./kg., 10 rats per dose
  Number of Rats with Analgesia: 1
[1]; 1 h after administration, dose 100 mg./kg., 10 rats per dose
  Number of Rats with Analgesia: 3
[1]; 1 h after administration, dose 200 mg./kg., 8 rats per dose
  Number of Rats with Analgesia: 2 and 3
[1]; 1 h after administration, dose 400 mg./kg., 8 rats per dose
  Number of Rats with Analgesia: 6 and 4
[1]; 2 h after administration, dose 25 mg./kg., 10 rats per dose
  Number of Rats with Analgesia: 0
[1]; 2 h after administration, dose 50 mg./kg., 10 rats per dose
  Number of Rats with Analgesia: 0
[1]; 2 h after administration, dose 100 mg./kg., 8 rats per dose
  Number of Rats with Analgesia: 1
[1]; 2 h after administration, dose 100 mg./kg., 10 rats per dose
  Number of Rats with Analgesia: 2
[1]; 2 h after administration, dose 200 mg./kg., 8 rats per dose
  Number of Rats with Analgesia: 4 and 3
[1]; 2 h after administration, dose 400 mg./kg., 8 rats per dose
  Number of Rats with Analgesia: 7
[1]; 3 h after administration, dose 25 mg./kg., 10 rats per dose
  Number of Rats with Analgesia: 0
[1]; 3 h after administration, dose 50 mg./kg., 10 rats per dose
  Number of Rats with Analgesia: 0
[1]; 3 h after administration, dose 100 mg./kg., 10 rats per dose
  Number of Rats with Analgesia: 0
[1]; 3 h after administration, dose 200 mg./kg., 8 rats per dose
  Number of Rats with Analgesia: 4
[1]; 3 h after administration, dose 400 mg./kg., 8 rats per dose
  Number of Rats with Analgesia: 6
[1]; 4 h after administration, dose 25 mg./kg., 10 rats per dose
  Number of Rats with Analgesia: 0
[1]; 4 h after administration, dose 50 mg./kg., 10 rats per dose
  Number of Rats with Analgesia: 0
[1]; 4 h after administration, dose 100 mg./kg., 8 rats per dose
  Number of Rats with Analgesia: 0
[1]; 4 h after administration, dose 100 mg./kg., 10 rats per dose
  Number of Rats with Analgesia: 0
[1]; 4 h after administration, dose 200 mg./kg., 8 rats per dose
  Number of Rats with Analgesia: 4
[1]; 4 h after administration, dose 400 mg./kg., 8 rats per dose
  Number of Rats with Analgesia: 5 and 4
[1]; 5 h after administration, dose 25 mg./kg., 10 rats per dose
  Number of Rats with Analgesia: 0
[1]; 5 h after administration, dose 50 mg./kg., 10 rats per dose
  Number of Rats with Analgesia: 0
[1]; 5 h after administration, dose 100 mg./kg., 8 rats per dose
  Number of Rats with Analgesia: 0
[1]; 5 h after administration, dose 100 mg./kg., 10 rats per dose
  Number of Rats with Analgesia: 0
[1]; 5 h after administration, dose 200 mg./kg., 8 rats per dose
  Number of Rats with Analgesia: 2 and 1
[1]; 5 h after administration, dose 400 mg./kg., 8 rats per dose
  Number of Rats with Analgesia: 2 and 3
[1]; 6 h after administration, dose 25 mg./kg., 10 rats per dose
  Number of Rats with Analgesia: 0
[1]; 6 h after administration, dose 50 mg./kg., 10 rats per dose
  Number of Rats with Analgesia: 0
[1]; 6 h after administration, dose 100 mg./kg., 8 rats per dose
  Number of Rats with Analgesia: 0
[1]; 6 h after administration, dose 100 mg./kg., 10 rats per dose
  Number of Rats with Analgesia: 0
[1]; 6 h after administration, dose 400 mg./kg., 8 rats per dose
  Number of Rats with Analgesia: 1
[1]; sum over 1/2, 1 and 2 h, dose 200 mg./kg., 8 rats per dose
  Total Positives: 7
[1]; sum over 1 and 2 h, dose 100 mg./kg., 10 rats per dose
  Total Positives: 5
[2]
  LD50: 1500 mg/kg
[3]
  No. Dead: 16

## CC(=O)Oc1ccccc1C(=O)O [aspirin]
[4]
  results in the adjuvant arthritis analgesic bioassay: positive, dose-dependent, reproducible results

## CC(C)Cc1ccc(CC(=O)O)cc1 [ibufenac]
[4]
  results in the adjuvant arthritis analgesic bioassay: positive, dose-dependent, reproducible results

## COc1ccc2c(c1)c(CC(=O)O)c(C)n2C(=O)c1ccc(Cl)cc1 [indomethacin]
[4]
  results in the adjuvant arthritis analgesic bioassay: positive, dose-dependent, reproducible results
